Test results published in patent US11512069B2, “TLR7/8 antagonists and uses thereof” (Merck Patent GmbH, priority 2016, dated 2022).

Biological target: T1, TLR7 (Homo sapiens, UniProt Q9NYK1)
T1 construct: expressed in transfected cells; host or cells: HEK cells carrying TLR7 and an NF-kB reporter read with Steady-Glo
T1 sequence (Q9NYK1 27-1049): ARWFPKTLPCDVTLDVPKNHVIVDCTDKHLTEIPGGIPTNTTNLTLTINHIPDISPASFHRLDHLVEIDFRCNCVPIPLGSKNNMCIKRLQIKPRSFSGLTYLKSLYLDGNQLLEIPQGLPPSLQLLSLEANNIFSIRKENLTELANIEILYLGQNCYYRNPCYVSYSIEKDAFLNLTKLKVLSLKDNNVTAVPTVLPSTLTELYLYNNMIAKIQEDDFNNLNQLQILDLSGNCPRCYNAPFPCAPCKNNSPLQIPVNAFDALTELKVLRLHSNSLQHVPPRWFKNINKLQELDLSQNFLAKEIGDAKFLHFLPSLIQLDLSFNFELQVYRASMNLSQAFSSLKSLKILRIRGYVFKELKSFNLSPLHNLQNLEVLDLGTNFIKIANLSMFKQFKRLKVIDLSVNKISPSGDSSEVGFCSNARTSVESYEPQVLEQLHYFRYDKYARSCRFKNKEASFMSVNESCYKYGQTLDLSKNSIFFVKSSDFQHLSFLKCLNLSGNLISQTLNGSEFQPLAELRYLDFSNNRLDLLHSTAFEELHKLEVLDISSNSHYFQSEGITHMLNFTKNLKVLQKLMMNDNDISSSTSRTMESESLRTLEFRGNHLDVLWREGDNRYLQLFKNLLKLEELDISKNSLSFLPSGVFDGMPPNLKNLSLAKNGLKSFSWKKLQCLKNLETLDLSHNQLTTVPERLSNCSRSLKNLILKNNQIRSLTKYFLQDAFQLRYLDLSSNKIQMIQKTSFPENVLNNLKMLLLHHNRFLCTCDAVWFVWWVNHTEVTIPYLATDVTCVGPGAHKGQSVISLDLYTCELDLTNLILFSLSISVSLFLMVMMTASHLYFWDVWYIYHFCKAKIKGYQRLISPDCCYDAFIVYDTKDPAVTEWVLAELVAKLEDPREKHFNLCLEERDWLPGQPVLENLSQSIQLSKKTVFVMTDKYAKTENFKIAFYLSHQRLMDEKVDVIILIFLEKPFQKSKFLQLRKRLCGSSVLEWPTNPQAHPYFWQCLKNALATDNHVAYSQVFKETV
Experiment: HEK Cell Assay (TLR7/NFKb HEK reporter cells, Steady-Glo)
Format: cell-based
Conditions: compound 30 min, then R*48 agonist 5 hours, Steady-Glo readout, read-out: Potency
Method: Example 32: HEK Cell Assay
Into 384 CulturePlates (Corning 3707) was placed 5000 c/w of TLR7/NFKb HEK cells in 30 uL DMEM without Phenil red (gibco #31053) and 10% i.a. FCS and 2 mM L-ZGLutamin. The cells were incubated for 24 h at 37 degrees Celsius, 10% carbon dioxide and 90% relative humidity, 3 uL of controls, standards, and compounds were dispensed to wells, incubated for 30 min then 3 uL of R*48 agonist in 20 mM Hepes was added. After incubation for 5 hours, it was allowed to stand at room temperature for 15 min, 10 uL of Steady-Glo substrate reagent was added and shake assay plate for 5 min at 1500 rpm. The assay plate was allowed to sit for 30 min at room temperature and then read plate on EnVision.

| SMILES | IC50 |
| --- | --- |
| C[C@@H]1C[C@H](c2ccc(C#N)c3ncccc23)CN(C(=O)CN2CCC2)C1 (relative stereo) [Compound 33] | 1 to 20 µM |
| C[C@@H]1C[C@H](c2ccc(C#N)c3ncccc23)CN(C(=O)CC2CN(C)C2)C1 (relative stereo) [Compound 34, cis-1-Methyl-1-[2-(1-methyl-azetidin-3-yl)-acetyl]-piperidin-3-yl-quinoline-8-carbonitrile] | 1 to 20 µM |
| C[C@@H]1C[C@H](c2ccc(C#N)c3ncccc23)CN(C(=O)c2ccc(N3CCC3)nc2)C1 (relative stereo) [Compound 36, cis-5-[1-(6-Azetidin-1-yl-pyridine-3-carbonyl)-5-methyl-piperidin-3-yl]-quinoline-8-carbonitrile] | > 20 µM |
| C[C@@H]1C[C@H](c2ccc(C#N)c3ncccc23)CN(C(=O)C2CCC(F)(F)CC2)C1 (relative stereo) [Compound 37, cis-5-[1-(4,4-Difluoro-cyclohexanecarbonyl)-5-methyl-piperidin-3-yl]-quinoline-8-carbonitrile] | > 20 µM |
| C[C@@H]1C[C@H](c2ccc(C#N)c3ncccc23)CN(C(=O)c2cc3n(n2)CCC3)C1 (relative stereo) [Compound 38, cis-5-[1-(5,6-Dihydro-4H-pyrrolo[1,2-b]pyrazole-2-carbonyl)-5-methyl-piperidin-3-yl]-quinoline-8-carbonitrile] | > 20 µM |
| C[C@@H]1C[C@H](c2ccc(C#N)c3ncccc23)CN(C(=O)C2CCN(C)CC2)C1 (relative stereo) [Compound 39, cis-5-[5-Methyl-1-(1-methyl-piperidine-4-carbonyl)-piperidin-3-yl]-quinoline-8-carbonitrile] | 1 to 20 µM |
| C[C@@H]1C[C@H](c2ccc(C(F)(F)F)c3ncccc23)CN(C(=O)NC2CC2)C1 (relative stereo) [Compound 40, cis-Cyclopropyl-3-methyl-5-[8-(trifluoromethyl)-5-quinolyl] piperidine-1-carboxamide] | 1 to 20 µM |
| C[C@@H]1C[C@@H](c2ccc(C(F)(F)F)c3ncccc23)CN(C(=O)NC2CC2)C1 (relative stereo) [Compound 41, trans-Cyclopropyl-3-methyl-5-[8-(trifluoromethyl)-5-quinolyl] piperidine-1-carboxamide] | 1 to 20 µM |
| C[C@@H]1C[C@H](c2ccc(C#N)c3ncccc23)CN(C(=O)CC2(N)CC2)C1 (relative stereo) [Compound 62, Cis-1-[2-(1-Amino-cyclopropyl)-acetyl]-5-methyl-piperidin-3-yl-quinoline-8-carbonitrile] | 1 to 20 µM |
| C[C@H]1C[C@H](c2ccc(C#N)c3ncccc23)CN(C(=O)CC2(N)CC2)C1 (relative stereo) [Compound 63, Trans-1-[2-(1-Amino-cyclopropyl)-acetyl]-5-methyl-piperidin-3-yl-quinoline-8-carbonitrile] | 1 to 20 µM |
| C[C@H]1C[C@H](c2ccc(C#N)c3ncccc23)CN(CC(N)=O)C1 (relative stereo) [Compound 66] | > 20 µM |
| C[C@@H]1C[C@H](c2ccc(C#N)c3ncccc23)CN(CC(N)=O)C1 (relative stereo) [Compound 67] | > 20 µM |
| C[C@@H]1C[C@H](c2ccc(C#N)c3ncccc23)CN(CC(=O)NC2CCN(C)CC2)C1 (relative stereo) [Compound 68, cis-2-[3-(8-Cyano-quinolin-5-yl)-5-methyl-piperidin-1-yl]-N-(1-methyl-piperidin-4-yl)-acetamide] | 1 to 20 µM |
| C[C@@H]1C[C@@H](c2ccc(C#N)c3ncccc23)CN(CC(=O)NC2CCN(C)CC2)C1 (relative stereo) [Compound 69, trans-2-[3-(8-Cyano-quinolin-5-yl)-5-methyl-piperidin-1-yl]-N-(1-methyl-piperidin-4-yl)-acetamide] | 1 to 20 µM |
| C[C@@H]1C[C@H](c2ccc(C#N)c3ncccc23)CN(CC(=O)N2CCC(N(C)C)CC2)C1 (relative stereo) [Compound 70, cis-5-(1-{2-[4-(dimethylamino)piperidin-1-yl]-2-oxoethyl}-5-methylpiperidin-3-yl) quinoline-8-carbonitrile] | 1 to 20 µM |
| C[C@@H]1C[C@@H](c2ccc(C#N)c3ncccc23)CN(CC(=O)N2CCC(N(C)C)CC2)C1 (relative stereo) [Compound 71, trans-5-(1-{2-[4-(dimethylamino)piperidin-1-yl]-2-oxoethyl}-5-methylpiperidin-3-yl) quinoline-8-carbonitrile] | 1 to 20 µM |
| C[C@@H]1C[C@H](c2ccc(C#N)c3ncccc23)CN(CC(=O)NCCN2CCN(C)CC2)C1 (relative stereo) [Compound 72, cis-2-[3-(8-Cyano-quinolin-5-yl)-5-methyl-piperidin-1-yl]-N-[2-(4-methyl-piperazin-1-yl)-ethyl]-acetamide] | 1 to 20 µM |
| C[C@@H]1C[C@@H](c2ccc(C#N)c3ncccc23)CN(CC(=O)NCCN2CCN(C)CC2)C1 (relative stereo) [Compound 73, trans-2-[3-(8-Cyano-quinolin-5-yl)-5-methyl-piperidin-1-yl]-N-[2-(4-methyl-piperazin-1-yl)-ethyl]-acetamide] | 1 to 20 µM |
| C[C@@H]1C[C@H](c2ccc(C#N)c3ncccc23)CN(CC(=O)NCC2CCN(C)CC2)C1 (relative stereo) [Compound 74, cis-2-[3-(8-Cyano-quinolin-5-yl)-5-methyl-piperidin-1-yl]-N-(1-methyl-piperidin-4-ylmethyl)-acetamide] | 1 to 20 µM |
| C[C@@H]1C[C@@H](c2ccc(C#N)c3ncccc23)CN(CC(=O)NCC2CCN(C)CC2)C1 (relative stereo) [Compound 75, trans-2-[3-(8-Cyano-quinolin-5-yl)-5-methyl-piperidin-1-yl]-N-(1-methyl-piperidin-4-ylmethyl)-acetamide] | 1 to 20 µM |
| C[C@@H]1C[C@H](c2ccc(C#N)c3ncccc23)CN(CC(=O)Nc2cnn(C)c2)C1 (relative stereo) [Compound 76, cis-2-[3-(8-Cyano-quinolin-5-yl)-5-methyl-piperidin-1-yl]-N-(1-methyl-1H-pyrazol-4-yl)-acetamide] | > 20 µM |
| C[C@@H]1C[C@@H](c2ccc(C#N)c3ncccc23)CN(CC(=O)Nc2cnn(C)c2)C1 (relative stereo) [Compound 77, trans-2-[3-(8-Cyano-quinolin-5-yl)-5-methyl-piperidin-1-yl]-N-(1-methyl-1H-pyrazol-4-yl)-acetamide] | > 20 µM |
| C[C@@H]1C[C@H](c2ccc(C#N)c3ncccc23)CN(C(=O)CC2[C@H]3CN(C)C[C@@H]23)C1 (relative stereo) [Compound 79] | < 1 µM |
| C[C@@H]1C[C@H](c2ccc(C#N)c3ncccc23)CN(C(=O)Cc2cnn(C)c2)C1 (relative stereo) [Compound 107, cis-5-Methyl-1-[2-(1-methyl-1H-pyrazol-4-yl)-acetyl]-piperidin-3-yl-quinoline-8-carbonitrile] | > 20 µM |
| C[C@@H]1C[C@H](c2ccc(C#N)c3ncccc23)CN(C(=O)c2cnn(C)c2)C1 (relative stereo) [Compound 108, cis-5-Methyl-1-(1-methyl-H-pyrazole-4-carbonyl)-piperidin-3-yl-quinoline-8-carbonitrile] | 1 to 20 µM |
| COCCN[C@@H]1C[C@H](C)C[C@H](c2ccc(C#N)c3nccnc23)C1 (relative stereo) [Compound 133, 8-[(cis-1,3,5)-3-[(2-methoxyethyl)amino]-5-methylcyclohexyl]quinoxaline-5-carbonitrile] | < 1 µM |
